Assay [1] has as its system obstruction-induced persistent progression of renal fibrosis. In words: Reversible unilateral ureteral obstruction (RUUO) model. Type of assay: in vivo, mouse. An excerpt:
FIG. 6A illustrates a diagram depicting the timeline of operations and drug delivery. The left ureter was surgically ligated (UUO-L) for 7 days, after which it was re-connected to the bladder (RUUO-L). Various compounds, including DMSO (control), WRG-28, and Av, were intraperitoneally injected daily during ureter ligation (UUO-L) period. After following RUUO-L for an additional 13 days, the right ureter was ligated (UUO-R). Subsequently, mice were housed in metabolic cages on the day after surgery (day 21). On day 22, the left kidneys were removed for further analysis to evaluate kidney function. […] FIG. 6C illustrates the measurement of the Sirius red-positive area in each group, conducted by using Image J from 5-10 images. The protein levels of integrin β1, collagen 1a1, DDR2, α-SMA, E-cadherin, SGLT2, NHE1, and β-actin were assessed in mice treated with WRG-28 (FIG. 6D) and Av (FIG. 6F) using Western blot analysis. Relative protein levels were quantified using Image J (FIG. 6E and FIG. 6G). Each bar represents mean±SEM. In all the graphs, *, **, and *** denote p-values of <0.05, 0.01, and 0.001, respectively.
The left ureter was surgically ligated (UUO-L) for 7 days, after which it was re-connected to the bladder (RUUO-L). Various compounds, including DMSO (control), WRG-28, and Av were intraperitoneally injected for 13 days after the release of left ureter ligation (during RUUO-L period). After 13 days of RUUO-L, the right ureter was ligated (UUO-R). Subsequently, the mice were housed in metabolic cages on the following day of surgery (day 21). On day 22, the left kidneys were removed for further analysis. […] FIG. 7C illustrates the measurement of the Sirius red-positive area in each group using Image J from 5-10 images. The protein levels of integrin β1, collagen 1a1, DDR2, […] were assessed in mice treated with WRG-28 (FIG. 7D) and Av (FIG. 7F) using Western blot analysis. The relative protein levels were measured and quantified using Image J (FIG. 7E and FIG. 7G). Each bar represents the mean±SEM. In all the graphs, *, **, and *** denote p-values of <0.05, 0.01, and 0.001, respectively. NS denotes a p-value >0.05, indicating no significant difference between the two groups.
FIG. 8A, FIG. 8B, FIG. 8C, FIG. 8D, FIG. 8E, FIG. 8F, FIG. 8G, and FIG. 8H illustrate how WRG-28 and Av restore epithelial differentiation and reduce collagen deposition and myofibroblast expansion in RUUO-induced persistent progression of renal fibrosis. The frozen tissue blocks were utilized for immunofluorescence staining. […] Laminin alpha 1 and collagen 1a1 were detected using primary antibodies, followed by secondary antibodies conjugated with Alexa-488 (green) and Alexa-594 (red), respectively. Hoechst 33258 (blue) was used for labeling nuclei. FIG. 8A-(ii) illustrates the fluorescent intensity of collagen 1a1 measured using Image J. Analysis was conducted on 5-10 areas from each of the 5 pictures, with each bar representing the mean±SEM. In FIG. 8A-(i), the thickness of laminin alpha 1 was measured using Image J by analyzing 5-10 areas from each of the 5-10 pictures. The median is marked by a solid line, while the quartiles are indicated by dotted lines. […] FIG. 8B-(iii) illustrates the fluorescent intensity of α-SMA, measured using Image J. Quantification was conducted on at least 5 areas from each of the 5 pictures, with each bar representing the mean±SEM. […] Additionally, Hoechst 33258 (blue) was used for labeling nuclei. FIG. 8C-(iv) illustrates the quantification of apical membrane expression of SGLT2 in SGLT2 positive cells for each condition. Analysis was conducted on at least 5 pictures from each condition, with each bar representing the mean±SEM. […] Hoechst 33258 (blue) was used to label nuclei. The expressions of DDR2 (FIG. 8D-(v)) and AQP1 (FIG. 8D-(vi)) were analyzed and quantified based on 5-8 pictures from each condition. Each bar in the figures represents the mean±SEM. […]

A further assay deals with CRAC channel (Homo sapiens, UniProt Q96D31). The assay is described as follows: CRAC channel activity / SOCE by Fura 2-AM cytosolic Ca2+ imaging in HEK293T cells. Type of assay: cell-based. Further details: endogenous in cells; host or cells: HEK293T. The conditions noted are these: 10 μM, 1 μM thapsigargin then 2 mM Ca2+.
Setting [2] is: serum, compared to DMSO-treated mice, 7*/15d or 7/15*d.
[3] abbreviates: treated after release of obstruction (7/15*d), Western blot.
[4] abbreviates: treated after the obstruction was released (7/15*d).
The mark [5] stands for this setting: treated during obstruction (7*/15d).
Where [6] appears, read: treated during obstruction (7*/15d), Western blot.

Sequence of CRAC channel (Q96D31 whole entry): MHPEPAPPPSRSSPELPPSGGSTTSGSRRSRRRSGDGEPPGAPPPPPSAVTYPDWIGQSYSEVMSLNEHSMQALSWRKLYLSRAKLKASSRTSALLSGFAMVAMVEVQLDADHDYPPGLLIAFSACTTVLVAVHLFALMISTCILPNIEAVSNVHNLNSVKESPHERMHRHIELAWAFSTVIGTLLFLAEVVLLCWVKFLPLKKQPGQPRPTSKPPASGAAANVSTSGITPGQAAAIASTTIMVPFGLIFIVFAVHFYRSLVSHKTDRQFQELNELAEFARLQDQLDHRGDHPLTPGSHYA
Procedure for CRAC channel: CRAC channel activity was evaluated by applying 1 μM thapsigargin (Thap.) in a calcium-free solution to deplete the endoplasmic reticulum calcium store, followed by the reintroduction of 2 mM Ca^2+ in an external solution. The concentration of cytosolic calcium ions increases as calcium flows through the CRAC channel, leading to the second peak in cytosolic calcium waves. […] Each bar represents the mean value derived from 47 to 103 cells. […] Each bar represents the mean value derived from 83 to 176 cells. […] Further analyses are presented in FIG. 1I and FIG. 1J, where the second peak of each wave and rate of entry were analyzed. Each bar represents the mean value derived from 72 to 108 cells. […] In all the graphs, each bar represents mean±SEM and *, **, and *** denote p-value <0.05, 0.01, and 0.001, respectively.
Cells were then washed and incubated with the same solution in addition to the supplement of Fura 2-AM for another 15 minutes for fully de-esterification. […] 1 μM thapsigargin was added to induce endoplasmic reticulum (ER) calcium store depletion followed by applying 2 mM calcium solution to assess the activation of calcium release-activated calcium (CRAC) channels. Cells were alternately excited at 340 and 380 nm, and images were acquired every 2 seconds. […] All the images were analyzed by using IGOR Pro software. […]

Turning to `CCNS(=O)(=O)c1ccc(COc2ccc3nc4ccc(=O)cc-4oc3c2)cc1` [WRG-28], the “expression of DDR2 (immunofluorescence)” value in assay [1] (RUUO, compared to the DMSO-treated group) is listed as “reduced”. Also, in assay [1] (RUUO, immunofluorescence), the “apical membrane expression of SGLT-2” value is recorded as “reversed” and the atrophic tubules entry is given as “fewer”. For the same compound, in assay [1] (RUUO, vs DMSO treated group), the “accumulation of collagen 1a1 (immunofluorescence)” value is “mitigated” and the “expression of α-SMA (immunofluorescence)” value is “markedly reduced”. Besides, in assay [1] (setting [2]), the “level of BUN” value is “significantly reduced” and the “level of CRE” value was “significantly reduced”. Also, in assay [1] (treated 7 days during ureter obstruction (7*/15d)), the “kidney histology (H&E)” value is on record as “preserved the intact tubular structure”. For the same compound, in assay [1] (treated 13 days after release of obstruction (7/15*d)), the “kidney histology (H&E) compared to DMSO-treated mice” value is “numerous intact tubular structures, less inflammation and scar tissue”. Besides, the “collagen-positive area (Sirius red)” value in assay [1] (treated after release of obstruction (7/15*d)) was “reduced”. In assay [1] (setting [3]), the “downregulation of epithelial marker proteins, E-cadherin, SGLT2 and NHE1” value is “only partially reversed”; the “obstruction-induced upregulation of integrin β1, DDR2, collagen 1a1, and α-SMA” value is recorded as “alleviated”. In assay [1] (setting [4]), the “number of apoptotic cells (TUNEL-positive cells)” value is given as “significantly reduced” and the “numbers of proliferating tubular cells (Ki67-positive cells)” value is “increased”. In assay [1] (setting [5]), the “expansion of the fibrotic area (collagen-positive area, Sirius red)” value is listed as “significantly reduced”; the “numbers of proliferating tubular cells (Ki67-positive)” value is “did not significantly differ”; the “proliferating interstitial cells (Ki67)” value is “more proliferating interstitial cells in DMSO treated mice”. In assay [1] (setting [6]), the “expression of epithelial markers (E-cadherin, SGLT2, NHE1)” value is reported as “significant increase” and the “expression of mesenchymal marker proteins (integrin β1, DDR2, collagen 1a1, α-SMA)” value is on record as “significantly reduced”. In addition, the “apoptotic (TUNEL-positive) tubular cells” value in assay [1] (treated during obstruction, obstruction released for 15 days (7*/15d)) is “only a few”. Moreover, the “width of the basement membrane (laminin alpha 1 thickness)” value in assay [1] (treated during the obstruction (7*/15d) or after its release (7/15*d), immunofluorescence) was “uniform and unchanging width”. For the same compound, the “second peak and rate of SOCE” value at CRAC channel was “significantly reduced”.

Source of the values: patent US20250339443A1, “METHOD FOR TREATING OR PREVENTING CALCIUM RELEASE-ACTIVATED CALCIUM CHANNEL OR DISCOIDIN DOMAIN RECEPTOR 2 RELATED DISORDERS OR CONDITIONS” (LumiSTAR Biotechnology, Inc., priority 2023, published 2025).
